# Assays:
# [1] = target: T1, 5-hydroxytryptamine receptor 2A (Homo sapiens, UniProt P28223); assay type: functional, cell-based
# [2] = target: Gamma-aminobutyric acid receptor subunit alpha-1 (Rattus norvegicus, UniProt P62813)
# [3] = target: T2, Thromboxane A2 receptor (Homo sapiens, UniProt P21731); assay type: functional, cell-based
# T2 sequence (P21731 whole entry): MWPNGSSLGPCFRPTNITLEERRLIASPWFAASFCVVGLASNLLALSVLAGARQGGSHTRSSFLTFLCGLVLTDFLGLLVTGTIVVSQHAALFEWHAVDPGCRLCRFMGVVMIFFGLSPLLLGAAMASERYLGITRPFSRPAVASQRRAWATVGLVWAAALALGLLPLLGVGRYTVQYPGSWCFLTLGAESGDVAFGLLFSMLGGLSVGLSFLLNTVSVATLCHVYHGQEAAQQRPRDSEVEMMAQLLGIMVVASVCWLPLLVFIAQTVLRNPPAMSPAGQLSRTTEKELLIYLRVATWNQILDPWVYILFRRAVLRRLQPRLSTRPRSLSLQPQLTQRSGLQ
# [4] = target: T3, Histamine H3 receptor (Homo sapiens, UniProt Q9Y5N1)
# [5] = target: T4, Muscarinic acetylcholine receptor M1 (Homo sapiens, UniProt P11229); assay type: functional
# T4 sequence (P11229 whole entry): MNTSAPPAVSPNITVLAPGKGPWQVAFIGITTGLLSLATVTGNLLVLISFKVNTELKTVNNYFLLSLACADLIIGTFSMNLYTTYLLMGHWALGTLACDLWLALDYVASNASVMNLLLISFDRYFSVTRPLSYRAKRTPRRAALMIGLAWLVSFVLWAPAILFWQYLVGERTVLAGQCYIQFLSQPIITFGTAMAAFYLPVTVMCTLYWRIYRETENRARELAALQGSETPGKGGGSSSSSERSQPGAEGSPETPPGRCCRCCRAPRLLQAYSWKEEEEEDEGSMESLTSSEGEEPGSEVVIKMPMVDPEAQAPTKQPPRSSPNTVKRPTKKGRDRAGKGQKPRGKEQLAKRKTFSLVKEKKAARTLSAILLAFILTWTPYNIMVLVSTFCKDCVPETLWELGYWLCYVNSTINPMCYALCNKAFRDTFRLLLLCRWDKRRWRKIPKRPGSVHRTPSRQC
# [6] = target: T1, 5-hydroxytryptamine receptor 2A; assay type: functional, cell-based; remark: listed apart in the source
# [7] = target: Sodium-dependent serotonin transporter (Homo sapiens, UniProt P31645)
# [8] = target: T5, Alpha-1A adrenergic receptor (Homo sapiens, UniProt P35348); assay type: functional, cell-based
# T5 sequence (P35348 whole entry): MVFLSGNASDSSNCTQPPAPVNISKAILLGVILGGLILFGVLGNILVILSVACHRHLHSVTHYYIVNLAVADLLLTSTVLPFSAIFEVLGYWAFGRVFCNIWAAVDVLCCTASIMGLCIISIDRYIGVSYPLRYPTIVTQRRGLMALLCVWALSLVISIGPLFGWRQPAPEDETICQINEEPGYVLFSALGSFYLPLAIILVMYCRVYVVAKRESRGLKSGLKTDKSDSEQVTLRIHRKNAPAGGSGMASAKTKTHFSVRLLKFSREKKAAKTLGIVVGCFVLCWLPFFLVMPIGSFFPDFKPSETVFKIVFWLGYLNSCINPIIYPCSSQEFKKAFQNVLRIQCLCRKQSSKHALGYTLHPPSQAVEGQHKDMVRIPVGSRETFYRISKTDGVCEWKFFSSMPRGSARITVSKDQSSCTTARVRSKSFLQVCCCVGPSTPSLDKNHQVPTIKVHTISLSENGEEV
# [9] = target: T6, Alpha-2A adrenergic receptor (Homo sapiens, UniProt P08913)
# T6 sequence (P08913 whole entry): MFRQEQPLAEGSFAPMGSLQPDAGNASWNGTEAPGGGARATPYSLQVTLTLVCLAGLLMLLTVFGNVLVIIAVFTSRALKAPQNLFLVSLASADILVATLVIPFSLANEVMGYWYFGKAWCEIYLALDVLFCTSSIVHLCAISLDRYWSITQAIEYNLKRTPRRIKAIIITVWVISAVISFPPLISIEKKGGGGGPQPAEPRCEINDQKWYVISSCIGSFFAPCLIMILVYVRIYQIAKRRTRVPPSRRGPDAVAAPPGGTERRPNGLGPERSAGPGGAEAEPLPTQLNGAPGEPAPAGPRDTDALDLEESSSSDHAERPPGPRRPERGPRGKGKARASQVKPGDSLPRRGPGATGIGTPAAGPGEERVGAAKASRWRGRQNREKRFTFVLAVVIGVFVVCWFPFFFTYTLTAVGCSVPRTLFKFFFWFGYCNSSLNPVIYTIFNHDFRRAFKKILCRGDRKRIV
# [10] = target: D(1A) dopamine receptor (Homo sapiens, UniProt P21728)
# [11] = target: 3',5'-cyclic-AMP phosphodiesterase 4A (Homo sapiens, UniProt P27815); assay type: functional
# [12] = target: T2, Thromboxane A2 receptor; assay type: functional, cell-based; remark: listed apart in the source
# [13] = target: T5, Alpha-1A adrenergic receptor; assay type: functional, cell-based; remark: listed apart in the source
# [14] = target: Prothrombin (Homo sapiens, UniProt P00734); assay type: functional
# [15] = target: 5-hydroxytryptamine receptor 2B (Homo sapiens, UniProt P41595); assay type: functional, cell-based
# [16] = target: Mu-type opioid receptor (Homo sapiens, UniProt P35372)
# [17] = target: T5, Alpha-1A adrenergic receptor; assay type: functional, cell-based; remark: listed apart in the source
# [18] = target: T3, Histamine H3 receptor; remark: listed apart in the source
# [19] = target: Voltage-dependent L-type calcium channel subunit alpha-1C (Rattus norvegicus, UniProt P22002); assay type: functional
# [20] = target: T2, Thromboxane A2 receptor
# [21] = target: Vasopressin V2 receptor (Homo sapiens, UniProt P30518)
# [22] = target: Cannabinoid receptor 1 (Homo sapiens, UniProt P21554)
# Further: assay procedure not described here.
# Voltage-dependent L-type calcium channel subunit alpha-1C, sequence (P22002 whole entry): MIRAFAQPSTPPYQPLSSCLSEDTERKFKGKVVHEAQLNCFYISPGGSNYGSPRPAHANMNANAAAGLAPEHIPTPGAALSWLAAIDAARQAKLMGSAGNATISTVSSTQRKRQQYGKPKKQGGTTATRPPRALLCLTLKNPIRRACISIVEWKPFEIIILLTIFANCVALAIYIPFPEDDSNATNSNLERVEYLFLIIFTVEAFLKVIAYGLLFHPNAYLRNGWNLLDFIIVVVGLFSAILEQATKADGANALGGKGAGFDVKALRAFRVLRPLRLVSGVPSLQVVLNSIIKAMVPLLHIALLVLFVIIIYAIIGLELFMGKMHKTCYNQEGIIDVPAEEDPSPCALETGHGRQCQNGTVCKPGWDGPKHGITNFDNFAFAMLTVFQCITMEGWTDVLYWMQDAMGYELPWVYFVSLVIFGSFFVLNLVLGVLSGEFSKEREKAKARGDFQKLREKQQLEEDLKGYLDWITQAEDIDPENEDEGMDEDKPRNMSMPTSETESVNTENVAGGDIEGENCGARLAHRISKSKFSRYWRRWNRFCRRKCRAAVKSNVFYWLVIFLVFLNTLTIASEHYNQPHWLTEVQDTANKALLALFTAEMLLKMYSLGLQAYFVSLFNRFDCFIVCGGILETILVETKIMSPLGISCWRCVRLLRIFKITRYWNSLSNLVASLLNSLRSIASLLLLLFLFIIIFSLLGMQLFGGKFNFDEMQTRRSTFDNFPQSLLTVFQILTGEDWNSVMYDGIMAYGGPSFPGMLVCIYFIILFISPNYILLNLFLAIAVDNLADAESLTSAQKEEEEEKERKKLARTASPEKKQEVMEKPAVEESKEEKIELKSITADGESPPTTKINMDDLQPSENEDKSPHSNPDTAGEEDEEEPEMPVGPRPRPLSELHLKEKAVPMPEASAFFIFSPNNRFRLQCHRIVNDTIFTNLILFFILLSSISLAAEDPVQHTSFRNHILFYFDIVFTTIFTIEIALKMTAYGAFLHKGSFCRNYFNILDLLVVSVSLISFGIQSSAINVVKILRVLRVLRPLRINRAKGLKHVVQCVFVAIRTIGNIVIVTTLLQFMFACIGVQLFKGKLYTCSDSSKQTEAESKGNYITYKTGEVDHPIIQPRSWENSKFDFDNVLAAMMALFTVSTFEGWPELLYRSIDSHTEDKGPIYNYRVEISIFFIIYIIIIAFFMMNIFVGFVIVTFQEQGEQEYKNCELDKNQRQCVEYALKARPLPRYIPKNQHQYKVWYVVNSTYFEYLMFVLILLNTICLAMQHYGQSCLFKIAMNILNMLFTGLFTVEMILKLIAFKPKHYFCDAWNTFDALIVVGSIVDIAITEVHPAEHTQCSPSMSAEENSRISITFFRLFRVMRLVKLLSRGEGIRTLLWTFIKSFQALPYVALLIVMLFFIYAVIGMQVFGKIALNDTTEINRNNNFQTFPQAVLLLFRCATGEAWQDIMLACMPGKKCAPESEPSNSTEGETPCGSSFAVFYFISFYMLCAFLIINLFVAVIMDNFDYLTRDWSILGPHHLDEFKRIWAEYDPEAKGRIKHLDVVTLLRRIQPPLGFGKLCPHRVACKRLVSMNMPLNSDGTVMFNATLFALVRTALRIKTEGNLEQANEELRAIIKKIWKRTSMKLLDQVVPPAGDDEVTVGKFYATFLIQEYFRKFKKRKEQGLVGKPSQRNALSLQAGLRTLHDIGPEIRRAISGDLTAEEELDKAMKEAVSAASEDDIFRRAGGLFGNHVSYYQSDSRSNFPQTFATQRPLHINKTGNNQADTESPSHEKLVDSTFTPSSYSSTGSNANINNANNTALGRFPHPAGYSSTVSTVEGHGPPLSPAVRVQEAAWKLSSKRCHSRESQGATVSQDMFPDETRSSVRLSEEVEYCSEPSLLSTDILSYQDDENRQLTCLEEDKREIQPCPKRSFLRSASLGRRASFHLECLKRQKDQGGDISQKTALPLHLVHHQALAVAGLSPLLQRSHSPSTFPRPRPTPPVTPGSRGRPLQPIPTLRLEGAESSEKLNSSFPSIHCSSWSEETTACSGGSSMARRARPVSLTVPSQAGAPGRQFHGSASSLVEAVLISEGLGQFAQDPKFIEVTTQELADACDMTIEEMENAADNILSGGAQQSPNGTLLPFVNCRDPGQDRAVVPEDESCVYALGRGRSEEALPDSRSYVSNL
# T1 sequence (P28223 whole entry): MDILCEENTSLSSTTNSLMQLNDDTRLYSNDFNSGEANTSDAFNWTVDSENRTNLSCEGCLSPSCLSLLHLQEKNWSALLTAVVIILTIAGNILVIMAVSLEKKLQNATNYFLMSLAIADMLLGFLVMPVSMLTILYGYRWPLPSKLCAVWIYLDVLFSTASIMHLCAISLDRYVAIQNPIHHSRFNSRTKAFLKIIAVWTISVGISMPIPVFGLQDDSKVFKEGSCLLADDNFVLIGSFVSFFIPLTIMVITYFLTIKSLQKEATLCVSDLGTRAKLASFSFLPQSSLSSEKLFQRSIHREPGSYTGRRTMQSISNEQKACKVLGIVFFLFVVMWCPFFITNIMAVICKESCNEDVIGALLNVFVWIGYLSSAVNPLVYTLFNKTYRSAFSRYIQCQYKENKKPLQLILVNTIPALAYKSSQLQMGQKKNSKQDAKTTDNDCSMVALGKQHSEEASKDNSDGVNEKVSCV
# 5-hydroxytryptamine receptor 2B, sequence (P41595 whole entry): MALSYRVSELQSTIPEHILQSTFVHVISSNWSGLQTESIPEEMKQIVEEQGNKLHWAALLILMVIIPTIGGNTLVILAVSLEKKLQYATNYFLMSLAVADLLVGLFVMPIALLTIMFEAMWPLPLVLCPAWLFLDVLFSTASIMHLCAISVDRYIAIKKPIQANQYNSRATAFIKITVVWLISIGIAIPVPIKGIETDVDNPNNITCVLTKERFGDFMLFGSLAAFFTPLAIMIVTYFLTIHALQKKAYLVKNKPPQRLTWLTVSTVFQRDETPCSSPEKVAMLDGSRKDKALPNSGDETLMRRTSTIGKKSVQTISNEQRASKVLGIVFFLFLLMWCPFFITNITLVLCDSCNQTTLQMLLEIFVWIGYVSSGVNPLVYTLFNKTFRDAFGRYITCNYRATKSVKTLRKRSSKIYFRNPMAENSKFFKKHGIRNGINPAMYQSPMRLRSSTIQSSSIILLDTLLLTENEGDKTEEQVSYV
# T3 sequence (Q9Y5N1 whole entry): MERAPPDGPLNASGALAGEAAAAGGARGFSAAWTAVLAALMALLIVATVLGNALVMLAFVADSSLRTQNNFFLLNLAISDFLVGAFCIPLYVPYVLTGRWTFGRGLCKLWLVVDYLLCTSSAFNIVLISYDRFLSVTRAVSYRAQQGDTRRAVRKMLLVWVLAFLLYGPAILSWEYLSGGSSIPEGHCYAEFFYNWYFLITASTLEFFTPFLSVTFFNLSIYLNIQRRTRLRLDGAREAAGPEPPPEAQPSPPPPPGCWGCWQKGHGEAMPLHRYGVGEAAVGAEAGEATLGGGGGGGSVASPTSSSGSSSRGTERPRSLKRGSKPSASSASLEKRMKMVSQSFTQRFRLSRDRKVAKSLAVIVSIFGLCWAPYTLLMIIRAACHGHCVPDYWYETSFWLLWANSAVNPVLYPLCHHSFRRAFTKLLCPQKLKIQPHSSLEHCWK
# 3',5'-cyclic-AMP phosphodiesterase 4A, sequence (P27815 whole entry): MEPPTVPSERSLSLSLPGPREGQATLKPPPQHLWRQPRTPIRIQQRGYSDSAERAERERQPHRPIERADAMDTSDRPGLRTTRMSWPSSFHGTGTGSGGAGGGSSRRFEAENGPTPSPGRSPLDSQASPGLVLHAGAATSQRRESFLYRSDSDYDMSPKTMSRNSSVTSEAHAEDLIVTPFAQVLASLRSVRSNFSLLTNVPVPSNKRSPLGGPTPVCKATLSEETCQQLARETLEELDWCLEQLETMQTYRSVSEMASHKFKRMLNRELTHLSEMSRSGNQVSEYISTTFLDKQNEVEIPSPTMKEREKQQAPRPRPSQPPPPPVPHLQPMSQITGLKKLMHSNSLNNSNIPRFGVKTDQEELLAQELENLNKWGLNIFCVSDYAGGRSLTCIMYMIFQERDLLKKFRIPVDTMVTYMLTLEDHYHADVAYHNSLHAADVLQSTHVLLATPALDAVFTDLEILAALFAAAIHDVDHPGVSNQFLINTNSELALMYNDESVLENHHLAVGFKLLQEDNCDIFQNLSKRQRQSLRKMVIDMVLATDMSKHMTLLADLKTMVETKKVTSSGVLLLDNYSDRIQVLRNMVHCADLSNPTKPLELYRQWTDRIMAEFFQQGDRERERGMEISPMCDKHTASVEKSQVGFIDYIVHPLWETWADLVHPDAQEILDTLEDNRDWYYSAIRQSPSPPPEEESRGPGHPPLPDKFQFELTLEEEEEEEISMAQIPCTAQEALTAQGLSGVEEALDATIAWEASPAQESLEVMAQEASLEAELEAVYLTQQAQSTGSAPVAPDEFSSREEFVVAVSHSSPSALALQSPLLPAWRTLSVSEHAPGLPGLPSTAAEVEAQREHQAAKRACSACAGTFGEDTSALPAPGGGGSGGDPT
# Gamma-aminobutyric acid receptor subunit alpha-1, sequence (P62813 whole entry): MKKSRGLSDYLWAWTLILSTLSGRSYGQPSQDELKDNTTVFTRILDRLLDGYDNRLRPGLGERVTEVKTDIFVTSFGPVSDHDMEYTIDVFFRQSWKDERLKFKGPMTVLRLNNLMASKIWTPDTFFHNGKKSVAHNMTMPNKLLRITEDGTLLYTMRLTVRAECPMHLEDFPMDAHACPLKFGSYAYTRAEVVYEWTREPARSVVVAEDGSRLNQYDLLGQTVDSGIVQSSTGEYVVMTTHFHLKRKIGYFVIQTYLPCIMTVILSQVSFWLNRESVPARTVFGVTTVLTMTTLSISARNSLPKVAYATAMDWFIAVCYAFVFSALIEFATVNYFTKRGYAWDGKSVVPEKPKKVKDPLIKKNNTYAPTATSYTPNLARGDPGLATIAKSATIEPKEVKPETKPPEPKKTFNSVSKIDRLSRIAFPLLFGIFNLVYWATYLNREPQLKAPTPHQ
SMILES,AC50 [1],AC50 [2],AC50 [3],AC50 [4],AC50 [7],AC50 [8],AC50 [9],AC50 [10],AC50 [11],AC50 [12],AC50 [13],AC50 [14],AC50 [15],AC50 [16],AC50 [17],AC50 [18],AC50 [19],AC50 [20],AC50 [21],AC50 [22],also measured
O=C(Cc1ccc(-c2ccccc2)cc1)Nc1ccccn1 [DIFENPIRAMIDE],> 30 µM,> 30 µM,> 30 µM,> 30 µM,> 30 µM,> 10 µM,> 30 µM,> 30 µM,> 30 µM,> 30 µM,> 30 µM,> 30 µM,> 30 µM,> 30 µM,> 30 µM,,,,,,AC50 [5]: > 30 µM; AC50 [6]: > 30 µM
C=CCc1ccccc1OCC(O)CNC(C)C (stereo unspecified) [ALPRENOLOL],> 30 µM,> 30 µM,> 0.3 µM,> 0.3 µM,> 0.3 µM,> 0.3 µM,> 0.3 µM,> 0.3 µM,> 0.3 µM,> 0.3 µM,> 30 µM,> 0.3 µM,16 µM,> 0.3 µM,> 0.3 µM,> 30 µM,> 30 µM,> 30 µM,> 30 µM,,AC50 [5]: > 30 µM; AC50 [6]: > 30 µM
O=P1(NCCCl)OCCCN1CCCl (stereo unspecified) [IFOSFAMIDE],,> 30 µM,,,,,,,,,,,> 30 µM,,,> 30 µM,> 30 µM,> 30 µM,> 30 µM,> 30 µM,
CN(C)/N=N/c1[nH]cnc1C(N)=O [DACARBAZINE],,> 10 µM,,,,,,,,,,,> 10 µM,,,,> 10 µM,> 10 µM,> 10 µM,> 10 µM,
CC[C@H]1[C@@H](O)[C@@H]2[C@H](CC[C@]3(C)[C@@H]([C@H](C)CCC(=O)O)CC[C@@H]23)[C@@]2(C)CC[C@@H](O)C[C@@H]12 [OBETICHOLIC ACID],11.5 µM,> 30 µM,> 30 µM,> 30 µM,> 30 µM,> 30 µM,> 30 µM,> 30 µM,> 30 µM,> 30 µM,> 30 µM,> 30 µM,,> 30 µM,> 30 µM,> 30 µM,> 30 µM,> 30 µM,> 30 µM,,AC50 [5]: > 30 µM; AC50 [6]: > 30 µM
c1ccc([C@H]2CN3CCSC3=N2)cc1 [LEVAMISOLE],,> 30 µM,,,,,,,,,> 30 µM,,> 30 µM,,,> 30 µM,> 30 µM,> 30 µM,,> 30 µM,
Clc1ccc(C(c2ccccc2Cl)C(Cl)Cl)cc1 (stereo unspecified) [MITOTANE],,> 10 µM,,,,,,,,,,,> 10 µM,,,,> 10 µM,> 10 µM,> 10 µM,12.8 µM,
COCCCN1CCC(NC(=O)c2cc(Cl)c(N)c3c2OCC3)CC1 [PRUCALOPRIDE],> 30 µM,,> 30 µM,> 30 µM,> 30 µM,> 30 µM,> 30 µM,> 30 µM,> 30 µM,> 30 µM,> 30 µM,> 30 µM,> 30 µM,> 30 µM,> 30 µM,> 30 µM,,,,,AC50 [5]: > 30 µM; AC50 [6]: > 30 µM
CCCSc1ccc2nc(NC(=O)OC)[nH]c2c1 [ALBENDAZOLE],,> 10 µM,,,,,,,,,,,> 10 µM,,,,> 10 µM,> 30 µM,> 10 µM,> 10 µM,
N[C@@H](C(=O)N[C@@H]1C(=O)N2C(C(=O)O)=C(Cl)CC[C@H]12)c1ccccc1 [LORACARBEF ANHYDROUS],,,> 30 µM,> 30 µM,> 30 µM,> 30 µM,> 30 µM,> 30 µM,> 30 µM,> 30 µM,,> 30 µM,,> 30 µM,> 30 µM,,,,,,
Cc1cc(C#N)cc(C)c1Oc1nc(Nc2ccc(C#N)cc2)nc(N)c1Br [ETRAVIRINE],,,> 3 µM,> 30 µM,> 30 µM,> 3 µM,20 µM,4.53 µM,> 30 µM,> 10 µM,,> 30 µM,,19.1 µM,> 10 µM,,,,,,
COC(c1ccccc1)(c1ccccc1)[C@H](Oc1nc(C)cc(C)n1)C(=O)O [AMBRISENTAN],,,> 30 µM,> 30 µM,> 30 µM,> 30 µM,> 30 µM,> 30 µM,> 30 µM,> 30 µM,,> 30 µM,,> 30 µM,> 30 µM,,,,,,
CCCN1C[C@H](CSC)C[C@@H]2c3cccc4[nH]cc(c34)C[C@H]21 [PERGOLIDE],,> 10 µM,,,,,,,,,0.33 µM,,,,,> 30 µM,> 10 µM,> 30 µM,> 30 µM,> 10 µM,
O=C(OCC(O)CO)c1ccccc1Nc1ccnc2cc(Cl)ccc12 (stereo unspecified) [GLAFENINE],> 30 µM,,> 30 µM,> 30 µM,> 30 µM,13.5 µM,> 30 µM,> 30 µM,8.3 µM,> 30 µM,> 30 µM,> 30 µM,> 30 µM,28.7 µM,> 30 µM,> 30 µM,,,,,AC50 [5]: > 30 µM; AC50 [6]: > 30 µM
CN(C)CCn1nnnc1SCC1=C(C(=O)O)N2C(=O)[C@@H](NC(=O)Cc3csc(N)n3)[C@H]2SC1 [CEFOTIAM],,,> 30 µM,> 30 µM,> 30 µM,> 30 µM,> 30 µM,> 30 µM,> 30 µM,> 30 µM,,> 30 µM,,> 30 µM,> 30 µM,,,,,,
CC(C)(C)NC[C@H](O)COc1ccccc1C1CCCC1 [PENBUTOLOL],,,16.1 µM,> 30 µM,5.53 µM,2.54 µM,0.966 µM,27.8 µM,> 10 µM,> 30 µM,,> 30 µM,,11.9 µM,> 30 µM,,,,,,

# From ChEMBL document CHEMBL5291721, “A preclinical secondary pharmacology resource illuminates target-adverse drug reaction associations of marketed drugs” (Nat Commun, 2023)
